Earlier results as cited in patent US20050080043A1, “Self-preserved antibacterial nasal, inhalable, and topical ophthalmic preparations and medications” (priority 2000, published 2005).
Where two headings read alike, the source gives them in different places.

Compound: CC[C@@H]1C(=O)OC[C@@H]1Cc1cncn1C [pilocarpine]
- stability of drug solution (pH 5.0): very stable
- stability of drug solution (pH 6.8): relatively unstable
